In paper PMC11233931, “Remodeling tumor‐associated macrophage for anti‐cancer effects by rational design of irreversible inhibition of mitogen‐activated protein kinase‐activated protein kinase 2” (MedComm, 2024):

Columns and labels:
Experiment in all cases: Eurofins kinase selectivity profile against 380 other human recombinant kinases (Table S2)
Type in all cases: biochemical
[1] = target: T1, 380 human recombinant protein kinases (Homo sapiens, UniProt O43781); details: DYRK3(h), read-out: Inhibition rate
T1 construct: purchased Eurofins (Celle Lévescault)
T1 sequence (O43781 1-588): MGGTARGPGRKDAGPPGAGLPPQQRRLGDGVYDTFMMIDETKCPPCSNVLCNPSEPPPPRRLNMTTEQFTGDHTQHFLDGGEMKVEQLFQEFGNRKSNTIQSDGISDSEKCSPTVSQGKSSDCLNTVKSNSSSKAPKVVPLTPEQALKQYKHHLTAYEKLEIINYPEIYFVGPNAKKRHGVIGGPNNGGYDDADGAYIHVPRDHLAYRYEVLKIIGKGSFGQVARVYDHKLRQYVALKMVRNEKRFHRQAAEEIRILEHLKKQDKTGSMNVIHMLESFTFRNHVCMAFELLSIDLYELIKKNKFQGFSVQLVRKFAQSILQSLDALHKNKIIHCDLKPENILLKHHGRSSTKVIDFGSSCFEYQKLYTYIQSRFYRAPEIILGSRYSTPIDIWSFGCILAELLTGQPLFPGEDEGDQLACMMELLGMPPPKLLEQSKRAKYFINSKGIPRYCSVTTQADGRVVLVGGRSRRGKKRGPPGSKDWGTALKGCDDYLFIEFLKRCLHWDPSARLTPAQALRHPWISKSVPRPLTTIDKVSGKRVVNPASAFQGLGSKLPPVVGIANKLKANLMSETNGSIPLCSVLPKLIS
Summary of the method: (§1)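 The inhibitor was sent to a contract lab and screened at various concentrations against 380 human recombinant protein kinases. This served as a counter-screen for MK2 specificity.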

[2] = target: T2, 380 human recombinant protein kinases (Homo sapiens, UniProt Q8IYT8); details: ULK2(h), read-out: Inhibition rate (%)
T2 construct: purchased Eurofins (Celle Lévescault)
T2 sequence (Q8IYT8 1-1036): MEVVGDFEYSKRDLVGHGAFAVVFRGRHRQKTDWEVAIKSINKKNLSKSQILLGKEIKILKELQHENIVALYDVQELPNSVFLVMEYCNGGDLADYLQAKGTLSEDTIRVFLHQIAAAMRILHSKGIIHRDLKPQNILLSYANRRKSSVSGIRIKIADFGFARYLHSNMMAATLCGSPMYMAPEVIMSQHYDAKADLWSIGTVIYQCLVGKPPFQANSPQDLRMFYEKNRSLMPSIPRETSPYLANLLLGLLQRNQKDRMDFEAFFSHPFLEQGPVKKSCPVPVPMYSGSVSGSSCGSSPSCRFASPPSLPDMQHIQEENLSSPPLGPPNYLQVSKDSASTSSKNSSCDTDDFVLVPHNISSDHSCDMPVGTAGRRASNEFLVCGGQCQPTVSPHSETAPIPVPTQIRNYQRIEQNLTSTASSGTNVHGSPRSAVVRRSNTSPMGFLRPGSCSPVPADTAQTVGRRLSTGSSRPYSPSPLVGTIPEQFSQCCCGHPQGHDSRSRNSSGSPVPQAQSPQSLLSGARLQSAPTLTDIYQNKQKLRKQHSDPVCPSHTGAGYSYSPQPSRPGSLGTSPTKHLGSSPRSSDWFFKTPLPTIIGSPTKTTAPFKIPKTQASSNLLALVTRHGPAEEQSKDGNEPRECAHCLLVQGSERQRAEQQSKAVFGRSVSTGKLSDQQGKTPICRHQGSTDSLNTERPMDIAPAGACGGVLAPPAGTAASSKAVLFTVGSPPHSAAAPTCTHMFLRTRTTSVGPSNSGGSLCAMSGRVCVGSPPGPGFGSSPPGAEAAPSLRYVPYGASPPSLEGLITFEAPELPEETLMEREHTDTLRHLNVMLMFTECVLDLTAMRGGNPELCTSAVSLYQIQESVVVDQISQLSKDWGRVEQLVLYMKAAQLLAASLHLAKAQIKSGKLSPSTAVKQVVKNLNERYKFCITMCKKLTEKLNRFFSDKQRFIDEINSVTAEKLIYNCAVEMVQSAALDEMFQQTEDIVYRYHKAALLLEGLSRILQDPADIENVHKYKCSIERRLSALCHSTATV
Summary of the method: as §1

[3] = target: T3, 380 human recombinant protein kinases (Homo sapiens, UniProt P22694); details: PKAcβ(h), read-out: Inhibition rate
T3 construct: purchased Eurofins (Celle Lévescault)
Summary of the method: as §1

[4] = target: T4, 380 human recombinant protein kinases (Homo sapiens, UniProt Q15303); details: ErbB4(h), read-out: Inhibition rate
T4 construct: purchased Eurofins (Celle Lévescault)
T4 sequence (Q15303 26-1308): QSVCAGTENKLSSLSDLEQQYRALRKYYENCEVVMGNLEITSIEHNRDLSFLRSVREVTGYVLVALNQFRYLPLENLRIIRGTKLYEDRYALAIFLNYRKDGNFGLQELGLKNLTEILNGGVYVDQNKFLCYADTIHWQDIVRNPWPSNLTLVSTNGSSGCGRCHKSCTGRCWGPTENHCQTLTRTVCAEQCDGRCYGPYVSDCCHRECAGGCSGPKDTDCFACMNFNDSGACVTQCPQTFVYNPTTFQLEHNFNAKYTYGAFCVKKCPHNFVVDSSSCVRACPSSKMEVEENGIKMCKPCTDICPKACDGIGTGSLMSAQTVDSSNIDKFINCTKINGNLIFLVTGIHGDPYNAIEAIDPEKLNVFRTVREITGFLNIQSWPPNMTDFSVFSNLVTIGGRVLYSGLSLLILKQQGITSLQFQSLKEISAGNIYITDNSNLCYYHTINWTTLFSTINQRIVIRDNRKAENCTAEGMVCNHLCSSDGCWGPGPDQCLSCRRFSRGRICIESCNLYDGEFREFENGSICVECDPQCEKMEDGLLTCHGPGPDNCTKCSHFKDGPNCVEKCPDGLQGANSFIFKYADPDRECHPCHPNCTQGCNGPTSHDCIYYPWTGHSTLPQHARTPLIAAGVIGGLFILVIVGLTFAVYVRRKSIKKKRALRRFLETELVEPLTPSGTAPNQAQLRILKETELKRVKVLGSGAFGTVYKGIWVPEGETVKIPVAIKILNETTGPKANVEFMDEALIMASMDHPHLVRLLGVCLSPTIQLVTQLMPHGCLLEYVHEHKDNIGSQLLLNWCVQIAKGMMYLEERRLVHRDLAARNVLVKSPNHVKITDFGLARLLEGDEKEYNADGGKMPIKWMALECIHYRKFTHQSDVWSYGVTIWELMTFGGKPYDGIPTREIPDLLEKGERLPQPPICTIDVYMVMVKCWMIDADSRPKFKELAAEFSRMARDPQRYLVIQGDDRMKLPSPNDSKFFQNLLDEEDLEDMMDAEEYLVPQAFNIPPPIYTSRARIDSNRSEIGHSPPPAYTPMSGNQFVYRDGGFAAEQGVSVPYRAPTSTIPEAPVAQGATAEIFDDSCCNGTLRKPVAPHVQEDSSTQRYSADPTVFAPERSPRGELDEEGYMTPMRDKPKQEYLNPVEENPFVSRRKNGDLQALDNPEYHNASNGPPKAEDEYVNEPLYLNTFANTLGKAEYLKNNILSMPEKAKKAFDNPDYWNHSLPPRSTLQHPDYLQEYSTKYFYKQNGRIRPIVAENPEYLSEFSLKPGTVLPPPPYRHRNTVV
Summary of the method: as §1

[5] = target: T5, 380 human recombinant protein kinases (Homo sapiens, UniProt P43403); details: ZAP-70(h), read-out: Inhibition rate (%)
T5 construct: purchased Eurofins (Celle Lévescault)
T5 sequence (P43403 1-619): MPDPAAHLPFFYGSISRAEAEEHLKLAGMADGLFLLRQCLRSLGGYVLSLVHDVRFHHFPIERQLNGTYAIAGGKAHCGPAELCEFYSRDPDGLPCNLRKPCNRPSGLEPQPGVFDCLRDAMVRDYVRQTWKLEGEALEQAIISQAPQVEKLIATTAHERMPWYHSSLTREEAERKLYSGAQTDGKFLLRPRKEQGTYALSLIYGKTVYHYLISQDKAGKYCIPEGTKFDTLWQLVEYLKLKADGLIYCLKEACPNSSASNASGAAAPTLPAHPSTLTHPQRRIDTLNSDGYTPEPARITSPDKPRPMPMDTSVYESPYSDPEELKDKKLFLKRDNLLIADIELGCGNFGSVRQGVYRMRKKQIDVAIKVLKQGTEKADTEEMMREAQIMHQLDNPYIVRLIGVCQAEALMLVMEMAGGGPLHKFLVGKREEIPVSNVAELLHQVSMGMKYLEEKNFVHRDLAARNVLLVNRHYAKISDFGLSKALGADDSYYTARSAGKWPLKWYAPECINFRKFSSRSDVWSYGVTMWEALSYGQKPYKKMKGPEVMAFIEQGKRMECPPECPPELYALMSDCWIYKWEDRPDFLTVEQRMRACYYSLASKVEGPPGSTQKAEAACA
Summary of the method: as §1

With `C=CC(=O)Nc1cc(-c2cc(-c3cc4c([nH]3)CCNC4=O)ccn2)ccc1OC(F)(F)F` [compound 11] the inhibition at 0.01 µM ([1]; 10 nM) was 34%, the inhibition at 0.1 µM ([1]; 100 nM) was 83% and the inhibition at 1 µM ([1]; 1000 nM) was 95%. For the same molecule, the inhibition at 0.01 µM ([2]; 10 nM) was 6%, the inhibition at 0.1 µM ([2]; 100 nM) was 6% and the inhibition at 1 µM ([2]; 1000 nM) was 5%. The inhibition at 0.01 µM ([3]; 10 nM) was -11%, the inhibition at 0.1 µM ([3]; 100 nM) was -4% and the inhibition at 1 µM ([3]; 1000 nM) was 5%. For the same molecule, the inhibition at 0.01 µM ([4]; 10 nM) was -15%, the inhibition at 0.1 µM ([4]; 100 nM) was -3% and the inhibition at 1 µM ([4]; 1000 nM) was 6%. The inhibition at 0.01 µM ([5]; 10 nM) was 8%, the inhibition at 0.1 µM ([5]; 100 nM) was 0% and the inhibition at 1 µM ([5]; 1000 nM) was -13%.
